# Literature values in patent publication US7585955B2, “Protein separation from a protein mixture” (Florida State University Research Foundation, Inc, priority 2005, dated 2009).
# Conditions: for pKa1 / pKa2: polyprotic buffer component
Compound,pKa,pKa1,pKa2
c1ccc2nc3ccccc3cc2c1 [acridine],about 5.60,,
CC(=O)CC(=O)O [acetoacetic acid],about 3.60,,
"CC(N)CN (centres unmarked) [1,2-propanediamine]",,about 9.80,about 6.60
N=C(N)NCC(=O)O [glycocyamine],about 2.80,,
"CN(C)CC(=O)O [N,N-dimethylglycine]",about 9.90,,
Clc1cnc2ncncc2n1 [6-chloropteridine],about 3.70,,
chloroaniline,about 2.80,,
O=C(O)CCCCCC(=O)O [heptanedioic acid],,about 5.60,about 4.70
CC(O)C(=O)O (centres unmarked) [lactic acid],about 3.80,,
Cc1ccc2ccccc2n1 [2-methylquinoline],about 5.80,,
Cc1cccc2ncccc12 [5-methylquinoline],about 5.20,,
NC[C@H](O)c1ccc(O)c(O)c1 [noradrenaline],,about 9.70,about 8.60
O=c1[nH]c(=O)c2[nH]c(=O)[nH]c2[nH]1 [uric acid],about 3.90,,
c1ccc2cnccc2c1 [isoquinoline],about 5.40,,
Oc1ccc2ccncc2c1 [7-isoquinolinol],,about 8.90,about 5.70
Cc1ccnc2ccccc12 [4-methylquinoline],about 5.70,,
CN(C)C [trimethylamine],about 9.80,,
CCNc1ccccc1 [N-ethylaniline],about 5.10,,
Nc1ccc(N=Nc2ccccc2)cc1 [4-aminoazobenzene],about 2.82,,
O=C(O)c1cncc(C(=O)O)c1 [dinicotinic acid],about 2.80,,
NCCc1c[nH]cn1 [histamine],,about 9.80,about 6.00
O=C(O)CCCl [3-chloropropanoic acid],about 3.98,,
Nc1nccs1 [thiazolamine],about 5.30,,
CC(=O)NCC(=O)O [N-acetylglycine],about 3.70,,
